Assay results reported in patent US12583861B2, “Derivatives of imidazo[4,5-d]pyridazine, their preparation and their therapeutic application” (SANOFI, priority 2021, dated 2026).
Structures can show the parent of a compound that is named as a salt. Where two headings read alike, the source gives them in different places.

Tests used:
human TLR7 = target: T1, human TLR7 (Homo sapiens, UniProt Q9NYK1); assay: HEK-Blue hTLR7 reporter cell assay (SEAP, NF-kB/AP-1) for stimulation of human TLR7; assay type: cell-based; details: HEK-Blue hTLR7 cells; for EC50: read-out: TLR7_EC50; for activation at 20 µM: 24 h, at 20000 nM
T1 construct: host or cells: HEK293 (HEK-Blue hTLR7)
T1 sequence (Q9NYK1 27-1049): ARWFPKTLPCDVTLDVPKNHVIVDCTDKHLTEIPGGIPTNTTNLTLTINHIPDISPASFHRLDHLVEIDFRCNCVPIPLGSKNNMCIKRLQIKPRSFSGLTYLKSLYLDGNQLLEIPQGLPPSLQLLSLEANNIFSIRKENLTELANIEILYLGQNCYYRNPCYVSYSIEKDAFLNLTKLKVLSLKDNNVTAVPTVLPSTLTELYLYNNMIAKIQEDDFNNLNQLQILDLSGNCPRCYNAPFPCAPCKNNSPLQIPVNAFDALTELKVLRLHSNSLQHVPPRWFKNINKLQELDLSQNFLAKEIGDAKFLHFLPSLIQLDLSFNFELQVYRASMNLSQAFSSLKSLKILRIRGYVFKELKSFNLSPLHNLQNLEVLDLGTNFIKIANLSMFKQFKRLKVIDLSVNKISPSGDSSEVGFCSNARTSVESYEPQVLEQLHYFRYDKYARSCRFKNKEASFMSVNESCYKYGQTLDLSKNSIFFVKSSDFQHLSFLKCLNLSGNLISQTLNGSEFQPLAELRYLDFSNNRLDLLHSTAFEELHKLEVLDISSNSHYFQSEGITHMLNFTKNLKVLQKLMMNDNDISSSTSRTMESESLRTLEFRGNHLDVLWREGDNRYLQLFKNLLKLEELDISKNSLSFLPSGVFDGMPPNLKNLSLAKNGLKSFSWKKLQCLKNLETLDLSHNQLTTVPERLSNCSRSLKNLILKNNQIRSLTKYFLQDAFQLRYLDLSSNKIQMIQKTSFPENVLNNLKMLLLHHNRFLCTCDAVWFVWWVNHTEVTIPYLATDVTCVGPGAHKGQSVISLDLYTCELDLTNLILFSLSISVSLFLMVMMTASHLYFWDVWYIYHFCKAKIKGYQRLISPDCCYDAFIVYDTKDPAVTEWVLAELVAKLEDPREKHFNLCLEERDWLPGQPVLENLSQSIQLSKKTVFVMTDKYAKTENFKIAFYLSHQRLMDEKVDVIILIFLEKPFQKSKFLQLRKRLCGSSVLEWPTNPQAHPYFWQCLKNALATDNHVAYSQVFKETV
How it was run: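 HEK293 cells expressing hTLR7 with NF-κB/AP-1-driven SEAP reporter, seeded 3.10E4 cells/well, pre-incubated 18–24 h, then exposed to 3-fold compound dilutions (0.01–20 μM) for 24 h at 37 °C. Supernatant SEAP read with QUANTI-Blue; EC50 as concentration giving 50% activation.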

human TLR8 = target: T2, human TLR8 (Homo sapiens, UniProt Q9NR97); assay: HEK-Blue hTLR8 reporter cell assay (SEAP, NF-kB/AP-1) for stimulation of human TLR8; assay type: cell-based; details: HEK-Blue hTLR8 cells; for EC50: 24 h incubation, SEAP readout, read-out: TLR8_EC50; for activation at 20 µM: 24 h, at 20000 nM
T2 construct: host or cells: HEK293 (HEK-Blue hTLR8)
T2 sequence (Q9NR97 27-1041): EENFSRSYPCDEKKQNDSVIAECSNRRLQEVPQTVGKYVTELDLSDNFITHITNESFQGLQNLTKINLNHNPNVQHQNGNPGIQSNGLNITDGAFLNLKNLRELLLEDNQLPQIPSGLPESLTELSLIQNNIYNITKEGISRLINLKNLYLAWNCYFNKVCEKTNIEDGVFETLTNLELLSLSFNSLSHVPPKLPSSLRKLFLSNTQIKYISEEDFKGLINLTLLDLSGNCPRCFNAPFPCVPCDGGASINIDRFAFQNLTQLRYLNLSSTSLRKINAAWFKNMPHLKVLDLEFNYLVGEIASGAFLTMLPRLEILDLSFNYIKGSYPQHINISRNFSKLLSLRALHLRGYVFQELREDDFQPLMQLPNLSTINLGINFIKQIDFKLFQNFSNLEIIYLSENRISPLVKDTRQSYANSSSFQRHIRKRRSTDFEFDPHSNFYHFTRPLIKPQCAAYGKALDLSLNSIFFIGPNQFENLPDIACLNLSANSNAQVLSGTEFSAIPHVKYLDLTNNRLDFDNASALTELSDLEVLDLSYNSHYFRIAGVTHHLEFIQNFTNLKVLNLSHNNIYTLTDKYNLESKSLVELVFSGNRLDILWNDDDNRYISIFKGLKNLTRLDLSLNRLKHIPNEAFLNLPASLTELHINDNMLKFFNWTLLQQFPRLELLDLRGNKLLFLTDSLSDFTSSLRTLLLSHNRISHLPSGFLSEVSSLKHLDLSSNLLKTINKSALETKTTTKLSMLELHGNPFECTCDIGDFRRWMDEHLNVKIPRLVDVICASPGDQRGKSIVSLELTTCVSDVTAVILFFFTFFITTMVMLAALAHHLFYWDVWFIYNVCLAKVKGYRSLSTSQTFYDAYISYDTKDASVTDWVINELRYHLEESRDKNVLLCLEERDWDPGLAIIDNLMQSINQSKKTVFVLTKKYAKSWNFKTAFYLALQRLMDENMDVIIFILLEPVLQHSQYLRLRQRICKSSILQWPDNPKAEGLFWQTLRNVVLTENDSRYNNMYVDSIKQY
How it was run: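 HEK293 cells carrying hTLR8 and a SEAP reporter driven by NF-κB/AP-1 sites were seeded at 3.10E4 cells/well and held 18 to 24 h at 37° C., 5% CO2 before compound addition. Supernatant SEAP measured with QUANTI-Blue™.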

| SMILES | EC50 (human TLR7; 24 h incubation, SEAP readout) [µM] | EC50 (human TLR8) [µM] | activation at 20 µM (human TLR7) [%] | activation at 20 µM (human TLR8) [%] | EC50 (human TLR7; μM) [µM] |
| --- | --- | --- | --- | --- | --- |
| CCCCc1nc2c(N)nnc(OC(C)CC)c2n1Cc1ccc(OC)cc1 (stereo not shown) [Compound 7, 7-(sec-butoxy)-2-butyl-1-(4-methoxybenzyl)-1H-imidazo[4,5-d]pyridazin-4-amine] | 0.046 | 2.1 |  |  |  |
| CCCCc1nc2c(N)nnc(OC(C)C)c2n1Cc1ccncc1 [Compound 76, 2-butyl-7-isopropoxy-1-(pyridin-4-ylmethyl)-1H-imidazo[4,5-d]pyridazin-4-amine 2,2,2-trifluoroacetate] | 1.35 | > 20 |  |  |  |
| CCCCc1nc2c(N)nnc(OC(C)C)c2n1Cc1ccc(CN(C(C)=O)C2CS(=O)(=O)C2)cc1 [Compound 38, N-(4-((4-amino-2-butyl-7-isopropoxy-1H-imidazo[4,5-d]pyridazin-1-yl)methyl)benzyl)-N-(1,1-dioxidothietan-3-yl)acetamide] | 0.345 | 14.7 |  |  |  |
| CCCCc1nc2c(N)nnc(OC(C)C)c2n1Cc1ccc(CNCCOCCOCCOCCOCCOCCOCCOCCOCCOCCOCCOCCOC)cc1 [Compound 123, 2-butyl-4-isopropoxy-3-[[4-[[2-[2-[2-[2-[2-[2-[2-[2-[2-[2-[2-(2-methoxyethoxy)ethoxy]ethoxy]ethoxy]ethoxy]ethoxy]ethoxy]ethoxy]ethoxy]ethoxy]ethoxy]ethylamino]methyl]phenyl]methyl]imidazo[4,5-d]pyridazin-7-amine di2,2,2-trifluoroacetate] |  |  | 13.5 | 10.2 |  |
| CCCCc1nc2c(N)nnc(-c3ccccc3)c2n1Cc1ccc(OC)cc1 [Compound 92, 2-butyl-1-(4-methoxybenzyl)-7-phenyl-1H-imidazo[4,5-d]pyridazin-4-amine] | 7.97 |  |  | 15 |  |
| CCCCc1nc2c(N)nnc(OC(C)C)c2n1CCCCCN [Compound 77, 1-(5-aminopentyl)-2-butyl-7-isopropoxy-1H-imidazo[4,5-d]pyridazin-4-amine] | 0.39 | > 20 |  |  |  |
| CCCCc1nc2c(N)nnc(OC(C)C)c2n1Cc1ccc(CNC(C)=O)cc1 [Compound 28, N-(4-((4-amino-2-butyl-7-isopropoxy-1H-imidazo[4,5c]pyridazin-1-yl)methyl)benzyl)acetamide] | 0.085 | > 20 |  |  |  |
| CCCCc1nc2c(N)nnc(OC(C)C)c2n1Cc1ccc(CN[C@H]2C[C@H](O)C2)cc1 [Compound 100, (1R,3R)-3-((4-((4-amino-2-butyl-7-isopropoxy-1H-imidazo[4,5-d]pyridazin-1-yl)methyl)benzyl)amino)cyclobutan-1-ol dihydrochloride salt] | 0.036 | 2.17 |  |  |  |
| CCCCc1nc2c(N)nnc(NC)c2n1Cc1ccc(OC)cc1 [Compound 53, 2-butyl-1-(4-methoxybenzyl)-N7-methyl-1H-imidazo[4,5-d]pyridazine-4,7-diamine] | 0.775 | > 20 |  |  |  |
| CCCCc1nc2c(N)nnc(N3CCCC3)c2n1Cc1ccc(CN)cc1 [Compound 134, 1-(4-(aminomethyl)benzyl)-2-butyl-7-(pyrrolidin-1-yl)-1H-imidazo[4,5-d]pyridazin-4-amine] | 0.274 | > 20 |  |  |  |
| CCCCc1nc2c(N)nnc(OC(C)C)c2n1Cc1cccc(CNC2CCC2)c1 [Compound 126, 2-butyl-1-(3-((cyclobutylamino)methyl)benzyl)-7-isopropoxy-1H-imidazo[4,5-d]pyridazin-4-amine dihydrochloride salt] | 0.122 | 0.382 |  |  |  |
| CCCCc1nc2c(N)nncc2n1Cc1ccc(OC)cc1 [Compound 95, 2-butyl-1-(4-methoxybenzyl)-1H-imidazo[4,5-d]pyridazin-4-amine] |  |  | 15 | 20.5 |  |
| CCCCc1nc2c(N)nnc(OC(C)C)c2n1C[C@H]1CCC[C@H](N)C1 (racemic) [Compound 32, 1-(((1S,3S)-3-aminocyclohexyl)methyl)-2-butyl-7-isopropoxy-1H-imidazo[4,5-]pyridazin-4-amine] | 0.598 | 0.709 |  |  |  |
| CCCCc1nc2c(N)nnc(OC3CC[S+]([O-])C3)c2n1Cc1ccc(OC)cc1 (single isomer, unassigned; isomer b) [Compound 69, 3-((4-amino-2-butyl-1-(4-methoxybenzyl)-1H-imidazo[4,5-d]pyridazin-7-yl)oxy)tetrahydrothiophene 1-oxide isomer B] | 6.76 | > 20 |  |  |  |
| CCCCc1nc2c(N)nnc(SC(C)C)c2[nH]1 [Compound 99, 2-butyl-7-(isopropylthio)-1H-imidazo[4,5-d]pyridazin-4-amine] | 13.6 |  |  | 18 |  |
| CCCCc1nc2c(N)nnc(OC(C)C)c2n1CCCCNC1CS(=O)(=O)C1 [Compound 152, 2-butyl-3-[4-[(1,1-dioxothietan-3-yl)amino]butyl]-4-isopropoxy-imidazo[4,5-d]pyridazin-7-amine] | 4.39 | > 20 |  |  |  |
| CCCCc1nc2c(N)nnc(OC(C)C)c2n1Cc1ccc(CN2CCNCC2)cc1 [Compound 40, 2-butyl-7-isopropoxy-1-(4-(piperazin-1-ylmethyl)benzyl)-1H-imidazo[4,5-d]pyridazin-4-amine] | 0.021 | 2.29 |  |  |  |
| CCCCc1nc2c(N)nnc(C3CCCC3)c2n1Cc1ccc(OC)cc1 [Compound 16, 2-butyl-7-cyclopentyl-1-(4-methoxybenzyl)-1H-imidazo[4,5-d]pyridazin-4-amine] | 0.323 | > 20 |  |  |  |
| CCCCc1nc2c(N)nnc(/C=C/C(C)C)c2n1C[C@H]1CC[C@H](CN)CC1 [Compound 137, 1-(((1R,4R)-4-(aminomethyl)cyclohexyl)methyl)-2-butyl-7-((E)-3-methylbut-1-en-1-yl)-1H-imidazo[4,5-d]pyridazin-4-amine] | 0.145 | > 20 |  |  |  |
| CCCCc1nc2c(N)nnc(C3=CCNC3)c2n1Cc1ccc(CN)cc1 [Compound 144, 1-[[4-(aminomethyl)phenyl]methyl]-2-butyl-7-(2,5-dihydro-1H-pyrrol-3-yl)imidazo[4,5-d]pyridazin-4-amine] |  |  |  | 14.7 | > 20 |
